# According to patent US9880171B2, “iASPP phosphorylation and metastatic potential” (LUDWIG INSTITUTE FOR CANCER RESEARCH LTD., priority 2012, dated 2018):
# Key:
# [1] = test system: WM278, Me300 and SK-MEL37 melanoma cell lines; experiment: p53-dependent apoptosis assay (subG1 DNA content, PI/FACS), Example 8; type: cell-based, human; details: 0.3 μM K00616a, 20 μM nutlin3, 1 μM PLX4032, agent alone, 72 hours
# [2] = test system: p53 expression in SK-MEL37, WM278 and Me300 cells; experiment: p53 level after Nutlin3 treatment, human melanoma cells; type: cell-based
# Protocol: (§1) FIG. 20. Restoring p53 by inhibiting mdm2 and iASPP suppresses melanoma growth in vitro and in vivo. FIG. 20A. H1299 cells were treated with DMSO or 10 μM nocodazole in the presence or absence of 2 or 10 μM of mitosis-related kinase inhibitors as indicated. […] FIG. 20B. Left panel: representative p53 level after Nutlin3 treatment for 24 hours in a variety of cells. Right bar graphs show the sub-G1 proportion of WM278 after treatment as that described in FIG. 19B (in upper panel, 10 μM and 20 μM Nutlin3 were used in parallel for comparison). From left to right of the upper right bar graph of FIG. 20B, the bars correspond to DMSO, Nut and JNJ+Nut, respectively. From left to right of the bottom bar graph of FIG. 20B, the bars correspond to DMSO, JNJ, Nut and JNJ+Nut, respectively. FIG. 20C. Me300, SK-MEL37, and B16 cells were treated as above (For B16 panel, 10 μM Nutlin3 was used) and sub-G1 proportion was analyzed. In (B) and (C), the bar graphs (mean±SD) were derived from three independent experiments. *p<0.05. FIG. 20D. Left panel: untreated B16 cells were subcutaneously injected into mice at day 1. […] Compound administration and tumor size measurement were repeated every two days from day 7 onwards. Bar graphs are shown as mean±SD (*p<0.05, n=6). FIG. 20E. Lower panels show representative images of isolated tumors. Right panel: representative H & E staining in B16 tumor section. Bar=20 μm. […]
# [3] = test system: p53 expression in B16 cells; experiment: p53 level after Nutlin3 treatment, B16 cells; type: cell-based, mouse
# Protocol: as §1
structure (smiles),measurement,setting,value
COc1ccc(C2=N[C@@H](c3ccc(Cl)cc3)[C@@H](c3ccc(Cl)cc3)N2C(=O)N2CCNC(=O)C2)c(OC(C)C)c1 [Nutlin3],apoptotic cell death (subG1),[1],very low rates of apoptotic cell death
same,optimal concentration of Nutlin3 to induce maximal p53 expression,[2]; SK-MEL37,2 µM
same,optimal concentration of Nutlin3 to induce maximal p53 expression,[2]; WM278 and Me300 cells,20 µM
same,optimal concentration of Nutlin3 to induce maximal p53 expression,[3],10 µM
